pEC50, pIC50: −log10 of the molar value. Like-named read-outs stand apart in the source and are kept apart here.
Legend:
human 5-LOX = molecular target: T1, human 5-LOX (Homo sapiens, UniProt P09917); experiment: 5-LOX enzyme activity, fluorescence method (5-HPETE, H2DCFDA); format: biochemical; details: read-out: 5-LO (IC50)
T1 construct: purchased Cayman 60402; host or cells: insect cells (lysate)
T1 sequence (P09917 1-674): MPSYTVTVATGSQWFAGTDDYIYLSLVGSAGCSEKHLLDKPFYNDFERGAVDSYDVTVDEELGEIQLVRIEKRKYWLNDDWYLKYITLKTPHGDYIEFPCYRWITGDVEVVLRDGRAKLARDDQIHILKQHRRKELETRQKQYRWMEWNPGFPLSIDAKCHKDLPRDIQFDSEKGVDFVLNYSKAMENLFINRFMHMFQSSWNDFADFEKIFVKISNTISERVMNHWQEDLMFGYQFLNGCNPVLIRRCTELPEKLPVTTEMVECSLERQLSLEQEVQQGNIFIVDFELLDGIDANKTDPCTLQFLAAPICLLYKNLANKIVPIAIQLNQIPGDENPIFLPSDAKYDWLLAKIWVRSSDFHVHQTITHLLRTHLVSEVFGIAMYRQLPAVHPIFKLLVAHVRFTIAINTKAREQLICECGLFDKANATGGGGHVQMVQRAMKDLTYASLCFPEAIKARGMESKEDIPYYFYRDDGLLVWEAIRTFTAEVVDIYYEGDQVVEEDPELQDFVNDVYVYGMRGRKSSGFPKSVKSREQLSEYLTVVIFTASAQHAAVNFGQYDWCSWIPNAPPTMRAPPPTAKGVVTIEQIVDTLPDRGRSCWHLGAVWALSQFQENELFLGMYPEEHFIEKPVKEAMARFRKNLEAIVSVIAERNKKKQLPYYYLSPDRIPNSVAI
Procedure, shortened: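 Compound (0.5 nM to 10 uM) pre-incubated 5 min with enzyme; reaction started with ATP (100 uM final) and arachidonic acid (3 uM final). All steps at room temperature, fluorescence read-out.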

[1] = test system: Rat basophilic leukemia (RBL) cells; experiment: LTB4 secretion assay in RBL (rat basophilic leukemia cells); format: cell-based
Procedure, shortened: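 Cells seeded 2×10^4/well the day before, then pre-incubated 15 min at 37 °C in EMEM/0.5% FBS with compound (5 nM to 100 uM). Stimulation with 2.5 uM arachidonic acid plus 5 uM A23187 (final) for 10 min at 37 °C; LTB4 in supernatant quantified by EIA.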

Rat whole blood (RWB) = experiment: LTB4 secretion assay in RWB (rat whole blood); format: cell-based
Procedure, shortened: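 Heparinized blood from male Sprague Dawley rats (6-9 weeks) diluted 1:1 in RPMI, pre-incubated 15 min at 37 °C with compound (2.5 nM to 50 uM). Stimulated with 10 uM calcium ionophore A23187 for 10 min at 37 °C, stopped with ice-cold PBS; LTB4 in supernatant quantified by EIA.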

pIC50 (human 5-LOX)	pEC50 ([1]; Rattus norvegicus, RBL)	pEC50 (Rat whole blood (RWB); Rattus norvegicus)	pEC50 [1]	pEC50 (Rat whole blood (RWB))	SMILES
> 6.00	< 4.70	< 4.70			Cc1cc(CNc2nc3ccc(NC4COC4)cc3n2C)cc(C)c1Oc1ncc(Cl)cn1 [Compound 418]
> 6.00	> 5.00	> 5.00			Cn1c(NCc2ccc(Oc3ccc(C#N)cn3)cc2)nc2ccc(N)cc21 [Compound 350]
< 5.00	> 5.00	> 5.00			CCn1c(NCc2ccc(Oc3ncc(Cl)cn3)cc2F)nc2ccc(Nc3cc(C(F)(F)F)n(C)n3)cc21 [Compound 506]
> 6.00	> 5.00	> 5.00			CC(Nc1nc2cc(N)ccc2[nH]1)c1ccc(Oc2ccc(Cl)cc2)cc1 (stereo not drawn) [Compound 110]
> 6.00	> 5.00	< 4.70			Cn1c(NCc2ccc(Oc3ccc(Cl)cc3)cn2)nc2ccc(NC3COC3)cc21 [Compound 298]
> 6.00	> 5.00	> 5.00			Nc1ccc2[nH]c(NCc3ccc4ccccc4c3)nc2c1 [Compound 81]
> 6.00	> 5.00	> 5.00			CN(c1ccc2nc(NCc3ccc(Oc4ccc(Cl)cn4)cc3)n(C)c2c1)C1COC1 [Compound 277]
> 6.00	> 5.00	< 4.70			COc1c(NC(C)c2ccc(Oc3ccc(OC(F)(F)F)cc3)cc2)ccc2[nH]c(N(C)C)nc12 (stereo not drawn) [Compound 191]
> 6.00	< 4.70	< 4.70			Nc1ccc2[nH]c(NCc3ccc(N4CCC(c5ccc(OC(F)(F)F)cc5)CC4)cc3)nc2c1 [Compound 108]
> 6.00	> 5.00	> 5.00			CCC(Nc1nc2ccc(Nc3cc(C(F)F)[nH]n3)cc2n1C)c1ccc(Oc2ncc(Cl)cn2)cc1 (stereo not drawn) [Compound 535]
> 6.00	> 5.00	< 4.70			Cn1c(NCCOc2ccc(OC(F)(F)F)c(Cl)c2)nc2cc(N)ccc21 [Compound 59]
> 6.00	> 5.00	> 5.00			Cc1cc(Nc2ccc3nc(NCc4ccc(Oc5ncc(Cl)cn5)cc4)n(CCC(F)(F)F)c3c2)n[nH]1 [Compound 491]
> 6.00	> 5.00	> 5.00			Nc1ccc2[nH]c(NCc3ccc(Cl)cc3F)nc2c1 [Compound 30]
< 5.00	> 5.00	4.70 to 5.00			CCn1c(NCc2ccc(Oc3cnc(C(F)(F)F)cn3)cc2)nc2ccc(Nc3cc(C(F)(F)F)n(C)n3)cc21 [Compound 523]
> 6.00	> 5.00	< 4.70			CNc1nc2ccc(N)cc2n1Cc1ccc(Oc2ccc(Cl)cc2)cc1 [Compound 219]
> 6.00	< 4.70	< 4.70			Cc1cc(Oc2ncc(Cl)cn2)cc(C)c1CNc1nc2ccc(NC3COC3)cc2n1C [Compound 417]
> 6.00	> 5.00	> 5.00			CCC(Nc1nc2ccc(Nc3cc(C)[nH]n3)cc2n1C)c1ccc(Oc2ncc(Cl)cn2)cc1 (stereo not drawn) [Compound 477]
> 6.00	> 5.00	> 5.00			Nc1ccc2nc(NCc3ccc(C(=O)c4ccc(Cl)cc4)cc3)[nH]c2c1 [Compound 130]
> 6.00	> 5.00	> 5.00			Cn1c(NCc2ccc(Oc3ccc(C(F)(F)F)cn3)cc2)nc2ccc(NC3COC3)cc21 [Compound 284]
> 6.00	> 5.00	> 5.00			CN(C)c1nc2ccc(NCc3ccc(OCc4ncco4)cc3)cc2[nH]1 [Compound 233]
> 6.00	> 5.00	4.70 to 5.00			Nc1ccc2nc(NC3CCCC3)n(Cc3ccc(Oc4ccc(Cl)cc4)cc3)c2c1 [Compound 161]
5.00 to 6.00	> 5.00	> 5.00			CCC(Nc1nc2ccc(Nc3cc(C(F)(F)F)n(C)n3)cc2n1C)c1ccc(Oc2cnc(Cl)cn2)cc1 (stereo not drawn) [Compound 517]
> 6.00	> 5.00	> 5.00			Cn1c(NCc2ccc(Nc3ncc(Cl)cn3)cc2)nc2ccc(NC3COC3)cc21 [Compound 461]
> 6.00	< 4.70	< 4.70			Cn1c(NCc2ccc(Oc3nccc(C(F)(F)F)n3)cc2)nc2ccc(NC3COC3)cc21 [Compound 364]

pIC50 (human 5-LOX)	pEC50 ([1]; Rattus norvegicus, RBL)	pEC50 (Rat whole blood (RWB); Rattus norvegicus)	pEC50 [1]	pEC50 (Rat whole blood (RWB))	SMILES
< 5.00	> 5.00	> 5.00			CCn1c(NCc2ccc(Oc3ncc(C(F)(F)F)cn3)cc2F)nc2ccc(Nc3cc(C(F)(F)F)n(C)n3)cc21 [Compound 527]
> 6.00	> 5.00	> 5.00			Nc1ccc2[nH]c(NCc3ccc(Oc4ccc(F)cc4)cc3)nc2c1 [Compound 94]
> 6.00	> 5.00	> 5.00			CCC(Nc1nc2ccc(Nc3cc(C4CC4)[nH]n3)cc2n1C)c1ccc(Oc2ncc(Cl)cn2)cc1 (stereo not drawn) [Compound 530]
> 6.00	> 5.00	4.70 to 5.00			Nc1ccc2[nH]c(NCc3ccc(Oc4ccc(Cl)cc4Cl)cc3)nc2c1 [Compound 135]
> 6.00	> 5.00	> 5.00			COCCn1c(NCc2ccc(Oc3ccc(Cl)cn3)cc2)nc2ccc(NC3COC3)cc21 [Compound 269]
> 6.00	> 5.00	< 4.70			CN(C)c1nc2ccc(NCc3ccc(C4(C#N)CCOCC4)cc3)cc2[nH]1 [Compound 241]
> 6.00	> 5.00	> 5.00			Cn1c(NCc2ccc(Oc3cnc(Cl)cn3)cc2)nc2ccc(NC3COC3)cc21 [Compound 296]
> 6.00	> 5.00	> 5.00			Cn1c(NCc2ccc(Oc3ncc(Cl)cc3F)cc2)nc2ccc(NC3COC3)cc21 [Compound 324]
> 6.00	> 5.00	4.70 to 5.00			Cn1c(NCc2ccc(Oc3ccc(Cl)cn3)cc2F)nc2ccc(NC3COC3)cc21 [Compound 273]
> 6.00	> 5.00	> 5.00			Cc1[nH]nc(Nc2ccc3nc(NCc4ccc(Oc5ncc(Cl)cn5)cc4)n(C)c3c2)c1C [Compound 474]
> 6.00	> 5.00	> 5.00			Cn1ccc(Nc2ccc3nc(NCc4ccc(Oc5ccc(Cl)cn5)cc4)n(C)c3c2)n1 [Compound 413]
> 6.00	> 5.00	> 5.00			Cn1c(NCc2ccc(Oc3cnc(N)nc3)cc2)nc2ccc(NC3COC3)cc21 [Compound 369]
< 5.00	> 5.00	4.70 to 5.00			Cn1nc(Nc2cc(F)c3nc(NCc4ccc(Oc5ncc(Cl)cn5)cc4)n(C)c3c2)cc1C(F)(F)F [Compound 524]
> 6.00	> 5.00	> 5.00			Cn1c(NCc2ccc(Oc3ncc(C#N)cn3)cc2)nc2ccc(NC3COC3)cc21 [Compound 368]
> 6.00	> 5.00	> 5.00			Cc1cc(Nc2ccc3nc(NCc4ccc(Oc5ncc(Cl)cn5)cc4)n(C)c3c2)n[nH]1 [Compound 415]
5.00 to 6.00	> 5.00	> 5.00			Cn1c(NCc2ccc(Oc3ncc(Cl)cn3)cc2)nc2ccc(Nc3nc(C(F)(F)F)cs3)cc21 [Compound 494]
> 6.00	> 5.00	> 5.00			Cn1c(NCCOc2ccc(OC(F)(F)F)cc2)nc2ccc(N)cc21 [Compound 52]
< 5.00			> 5.00	> 5.00	CCn1c(NCc2ccc(Oc3ncc(C(F)(F)F)cn3)cc2)nc2ccc(Nc3n[nH]c(C)c3Cl)cc21 [Compound 516]
> 6.00	> 5.00	4.70 to 5.00			CCn1c(NCc2ccc(Oc3ncc(C(F)(F)F)cn3)cc2)nc2ccc(Nc3cc(C(C)(C)C)[nH]n3)cc21 [Compound 507]
> 6.00	< 4.70	> 5.00			Cn1c(NCc2ccc(Oc3ncc(Cl)cn3)cc2F)nc2ccc(NC3COC3)cc21 [Compound 381]
> 6.00	> 5.00	> 5.00			Cc1cc(Nc2ccc3nc(NCc4ccc(N(C)c5ncc(Cl)cn5)cc4)n(C)c3c2)n[nH]1 [Compound 471]
> 6.00	< 4.70	> 5.00			Cn1c(NCc2ccc(Oc3ncccn3)cc2)nc2ccc(NC3COC3)cc21 [Compound 345]
> 6.00	> 5.00	< 4.70			CN(C)c1nc2cc(N)ccc2n1CCOc1ccc(Cl)cc1 [Compound 38]
